# Assay results reported in patent US10219516B2, “Molecules having pesticidal utility, and intermediates, compositions, and processes, related thereto” (priority 2015, dated 2019).
# Where two headings read alike, the source gives them in different places.
# Assays:
# [1] = system: Beet Armyworm (Spodoptera exigua, LAPHEG); experiment: Bioassay on Beet Armyworm (BAW), 128-well diet tray assay; assay type: in vivo
# Procedure: (§1) Certain molecules disclosed in this document were tested against BAW and CL using procedures described in the following examples. In the reporting of the results, the “BAW & CL Rating Table” was used (See Table Section).
# Bioassays on BAW were conducted using a 128-well diet tray assay. One to five second instar BAW larvae were placed in each well (3 mL) of the diet tray that had been previously filled with approximately 1.5 mL of artificial diet to which 50 μg/cm^2 of the test molecule (dissolved in 50 μL of 90:10 acetone-water mixture) had been applied (to each of eight wells) and then allowed to dry. Trays were covered with a clear self-adhesive cover, vented to allow gas exchange, and held at 25° C., 14:10 light-dark for five to seven days. Percent mortality was recorded for the larvae in each well; activity in the eight wells was then averaged. The results are indicated in the table entitled “Table ABC: Biological Results” (See Table Section).
# [2] = system: Cabbage Looper (Trichoplusia ni, TRIPNI); experiment: Bioassay on Cabbage Looper (CL), 128-well diet tray assay; assay type: in vivo; details: for pest or weed control at 50 µg/cm2: Trichoplusia ni
# Procedure: as §1
# Bioassays on CL were conducted using a 128-well diet tray assay. one to five second instar CL larvae were placed in each well (3 mL) of the diet tray that had been previously filled with 1 mL of artificial diet to which 50 μg/cm^2 of the test molecule (dissolved in 50 μL of 90:10 acetone-water mixture) had been applied (to each of eight wells) and then allowed to dry. Trays were covered with a clear self-adhesive cover, vented to allow gas exchange, and held at 25° C., 14:10 light-dark for five to seven days. Percent mortality was recorded for the larvae in each well; activity in the eight wells was then averaged. The results are indicated in the table entitled “Table ABC: Biological Results” (See Table Section).
# [3] = Species BAW (Beet Armyworm), read-out: BAW (Biological Results, rating)
# [4] = Species CL (Cabbage Looper), read-out: CL (Biological Results, rating)
# [5] = Beet Armyworm, 128-well diet tray assay, read-out: BAW rating
# [6] = Cabbage Looper, 128-well diet tray assay, read-out: CL rating
Structure (SMILES),"pest or weed control at 50 µg/cm2 [1, 3] [%]","pest or weed control at 50 µg/cm2 [1, 5] [%]",further results
"N#Cc1ccc(NC(=O)c2cc(NC(=O)[C@H]3[C@H](c4cc(Cl)cc(Cl)c4)C3(Cl)Cl)ccc2Cl)cc1 (relative stereo) [F5, trans-2-Chloro-N-(4-cyanophenyl)-5-(2,2-dichloro-3-(3,5-dichlorophenyl)cyclopropane-1-carboxamido)benzamide]",50 to 100,,"pest or weed control at 50 µg/cm2 [2, 4]: 50 to 100%"
"O=C(Nc1ccc(C(F)(F)F)cc1)c1cc(NC(=O)[C@H]2[C@H](c3cc(Cl)cc(Cl)c3)C2(Cl)Cl)ccc1Cl (relative stereo) [F6, trans-2-Chloro-5-(2,2-dichloro-3-(3,5-dichlorophenyl)cyclopropane-1-carboxamido)-N-(4-(trifluoromethyl)phenyl)benzamide]",50 to 100,,"pest or weed control at 50 µg/cm2 [2, 4]: 50 to 100%"
"O=C(Nc1ccccc1F)c1cc(NC(=O)[C@H]2[C@H](c3cc(Cl)cc(Cl)c3)C2(Cl)Cl)ccc1Cl (relative stereo) [F17, trans-2-Chloro-5-(2,2-dichloro-3-(3,5-dichlorophenyl)cyclopropane-1-carboxamido)-N-(2-fluorophenyl)benzamide]",50 to 100,,"pest or weed control at 50 µg/cm2 [2, 4]: 50 to 100%"
"O=C(Nc1cccc(Cl)c1)c1cc(NC(=O)[C@H]2[C@H](c3cc(Cl)cc(Cl)c3)C2(Cl)Cl)ccc1Cl (relative stereo) [F43, trans-2-Chloro-N-(3-chlorophenyl)-5-(2,2-dichloro-3-(3,5-dichlorophenyl)cyclopropane-1-carboxamido)benzamide]",50 to 100,,"pest or weed control at 50 µg/cm2 [2, 4]: 50 to 100%"
"O=C(Nc1ccc(F)cc1)c1cc(NC(=O)[C@H]2[C@H](c3cc(Cl)cc(Cl)c3)C2(Cl)Cl)c(F)cc1Cl (relative stereo) [F48, trans-2-Chloro-5-(2,2-dichloro-3-(3,5-dichlorophenyl)cyclopropane-1-carboxamido)-4-fluoro-N-(4-fluorophenyl)benzamide]",50 to 100,,"pest or weed control at 50 µg/cm2 [2, 4]: 50 to 100%"
"CSc1nc(NC(=O)c2cc(NC(=O)[C@H]3[C@H](c4cc(Cl)cc(Cl)c4)C3(Cl)Cl)ccc2Cl)n[nH]1 (relative stereo) [F184, trans-2-Chloro-5-(2,2-dichloro-3-(3,5-dichlorophenyl)cyclopropane-1-carboxamido)-N-(5-(methylthio)-1H-1,2,4-triazol-3-yl)benzamide]",,,"pest or weed control at 50 µg/cm2 [2, 4]: 50 to 100%"
"Cc1cc(N(C)C(=O)OC(C)(C)C)ccc1NC(=O)c1cc(NC(=O)[C@H]2[C@H](c3ccc(F)c(Cl)c3)C2(Cl)Cl)ccc1Cl (relative stereo) [F219, trans-tert-Butyl-(4-(2-chloro-5-(2,2-dichloro-3-(3-chloro-4-fluorophenyl)cyclopropane-1-carboxamido)benzamido)-3-methylphenyl)(methyl)carbamate]",50 to 100,,
"CNc1ccc(NC(=O)c2cc(NC(=O)[C@H]3[C@H](c4cc(Cl)cc(Cl)c4)C3(Cl)Cl)c(Cl)cc2Cl)cc1 (relative stereo) [F256, trans-2,4-dichloro-5-(2,2-dichloro-3-(3,5-dichlorophenyl)cyclopropane-1-carboxamido)-N-(4-(methylamino)phenyl)benzamide]",0 to 50,,
"CC(C)(C)OC(=O)N(C(=O)OC(C)(C)C)c1c(F)ccc(NC(=O)c2cc(NC(=O)[C@H]3[C@H](c4cc(Cl)cc(Cl)c4)C3(Cl)Cl)ccc2Cl)c1F (relative stereo) [F468, trans-tert-Butyl-N-((tert-butoxy)carbonyl)-N-(3-(2-chloro-5-(2,2-dichloro-3-(3,5-dichlorophenyl)cyclopropane-1-carboxamido)benzamido)-2,6-difluorophenyl)carbamate]",,0 to 50,
"CC(C)(C)OC(=O)N1CCc2cc(NC(=O)c3cc(NC(=O)[C@H]4[C@H](c5cc(Cl)cc(Cl)c5)C4(Cl)Cl)ccc3Cl)ccc21 (relative stereo) [F509, tert-Butyl 5-(2-chloro-5-(trans)-(2,2-dichloro-3-(3,5-dichlorophenyl)cyclopropane-1-carboxamido)benzamido)indoline-1-carboxylate]",,0 to 50,
"CC(C)(C)OC(=O)N(C(=O)OC(C)(C)C)c1c(F)ccc(NC(=O)c2cc(NC(=O)[C@H]3[C@H](c4cc(Cl)cc(C#N)c4)C3(Cl)Cl)ccc2Cl)c1F (relative stereo) [F515, trans-tert-Butyl-N-((tert-butoxy)carbonyl)-N-(3-(2-chloro-5-(2,2-dichloro-3-(3-chloro-5-cyanophenyl)cyclopropane-1-carboxamido)benzamido)-2,6-difluorophenyl)carbamate]",,,"pest or weed control at 50 µg/cm2 [2, 6]: 50 to 100%"
"CCc1cc(C(F)(C(F)(F)F)C(F)(F)C(F)(F)F)cc(CC)c1NC(=O)c1cc(NC(=O)[C@H]2[C@H](c3cc(Cl)cc(Cl)c3)C2(Cl)Cl)ccc1Cl (relative stereo) [PF59, trans-2-Chloro-5-(2,2-dichloro-3-(3,5-dichlorophenyl)cyclopropane-1-carboxamido)-N-(2,6-diethyl-4-(perfluorobutan-2-yl)phenyl)benzamide]",,0 to 50,
"CCc1cc(C(F)(C(F)(F)F)C(F)(F)F)cc(CC)c1NC(=O)c1cc(NC(=O)[C@H]2[C@H](c3cc(Cl)cc(Cl)c3)C2(Cl)Cl)ccc1Cl (relative stereo) [PF61, trans-2-Chloro-5-(2,2-dichloro-3-(3,5-dichlorophenyl)cyclopropane-1-carboxamido)-N-(2,6-diethyl-4-(perfluoropropan-2-yl)phenyl)benzamide]",,0 to 50,
"Cc1cc(N(C)C(=O)OC(C)(C)C)ccc1N(C)C(=O)c1cc(NC(=O)C2C(c3cc(Cl)c(Cl)c(Cl)c3)C2(Cl)Cl)ccc1Cl [F221, trans-tert-Butyl-(4-(2-chloro-5-((1R,3R)-2,2-dichloro-3-(3,4,5-trichlorophenyl)cyclopropane-1-carboxamido)-N-methylbenzamido)-3-methylphenyl)(methyl)carbamate]",50 to 100,,
"CC1(c2cc(Cl)cc(Cl)c2)C(C(=O)Nc2ccc(Cl)c(C(=O)Nc3ccc(F)cc3)c2)C1(Cl)Cl (stereo not drawn) [F253, 2-Chloro-5-cis-2,2-dichloro-3-(3,5-dichlorophenyl)-3-methylcyclopropane-1-carboxamido)-N-(4-fluorophenyl)benzamide]",,,"CL (Biological Results, rating) ([2]; Species CL (Cabbage Looper)): A (50-100)"
"CC(C)(C)OC(=O)N(C(=O)OC(C)(C)C)c1c(F)ccc(NC(=O)c2cc(NC(=O)[C@H]3[C@H](c4cc(Cl)cc(Cl)c4)C3(Cl)Cl)ccc2Cl)c1F [F499, tert-Butyl-N-((tert-butoxy)carbonyl)-N-(3-(2-chloro-5-((1R,3R)-2,2-dichloro-3-(3,5-dichlorophenyl)cyclopropane-1-carboxamido)benzamido)-2,6-difluorophenyl)carbamate]",,50 to 100,
"CC(C)(C)OC(=O)N(C(=O)OC(C)(C)C)c1c(F)ccc(NC(=O)c2cc(NC(=O)[C@H]3[C@H](c4cc(Cl)c(Cl)c(Cl)c4)C3(Cl)Cl)ccc2Cl)c1F [F501, tert-Butyl-N-((tert-butoxy)carbonyl)-N-(3-(2-chloro-5-((1R,3R)-2,2-dichloro-3-(3,4,5-trichlorophenyl)cyclopropane-1-carboxamido)benzamido)-2,6-difluorophenyl)carbamate]",,0 to 50,
"CC(C)(C)OC(=O)N(C(=O)OC(C)(C)C)c1c(F)ccc(NC(=O)c2cc(NC(=O)C3C(c4cc(Cl)cc(Br)c4)C3(Cl)Cl)ccc2Cl)c1F (centres unmarked) [F514, tert-Butyl-N-((tert-butoxy)carbonyl)-N-(3-(5-(3-(3-bromo-5-chlorophenyl)-2,2-dichlorocyclopropane-1-carboxamido)-2-chlorobenzamido)-2,6-difluorophenyl)carbamate]",,50 to 100,
"CC(C)(C)OC(=O)N(C(=O)OC(C)(C)C)c1c(F)cc(F)cc1NC(=O)c1cc(NC(=O)[C@H]2[C@H](c3cc(Cl)cc(Cl)c3)C2(Cl)Cl)ccc1Cl [F521, tert-Butyl-N-((tert-butoxy)carbonyl)-N-(2-(2-chloro-5-((1R,3R)-2,2-dichloro-3-(3,5-dichlorophenyl)cyclopropane-1-carboxamido)benzamido)-4,6-difluorophenyl)carbamate]",,,"pest or weed control at 50 µg/cm2 [2, 6]: 0 to 50%"
"C=Cc1cc(Cl)cc(C2C(C(=O)Nc3ccc(Cl)c(C(=O)Nc4ccc(F)c(N(C(=O)OC(C)(C)C)C(=O)OC(C)(C)C)c4F)c3)C2(Cl)Cl)c1 (centres unmarked) [F523, tert-Butyl-N-((tert-butoxyl)carbonyl)-N-(3-(2-chloro-5-(2,2-dichloro-3-(3-chloro-5-vinylphenyl)cyclopropane-1-carboxamido)benzamido)-2,6-difluorophenyl)carbamate]",,0 to 50,
"O=C(Nc1cc(Cl)c(Cl)c(Cl)c1)c1cc(NC(=O)C2C(c3cc(Cl)cc(Cl)c3)C2(Cl)Cl)ccc1Cl (stereo not drawn) [PF119, 2-Chloro-5-(trans)-2,2-dichloro-3-(3,5-dichlorophenyl)cyclopropane-1-carboxamido)-N-(3,4,5-trichlorophenyl)benzamide]",,50 to 100,
